Results: patent publication US20100317621A1, “BETA-LACTAMASE INHIBITORS” (priority 2007, published 2010)
≈ marks a conversion by molar mass, not a printed value.

Test system: E. coli expressing the Class A ESBL CTX-M-15
Experiment: microbe, parasite or virus in culture
Format: cell-based
Details: Escherichia coli, read-out: MIC alone, E. coli CTX-M-15

For `CO/N=C(\C(=O)N[C@@H]1C(=O)N2C(C(=O)O)=C(COC(C)=O)CS[C@H]12)c1csc(N)n1` [cefotaxime], the MIC was 1020 µg/mL (≈ 2250 µM).
